For eight molecules, TGI results are on record in PubChem BioAssay (NCI).

Among the test systems are A498 renal; HOP-92 NSCLC; K-562 leukemia; KM12 colon; MCF7 breast; MDA-MB-231 breast; MOLT-4 leukemia; RPMI-8226 leukemia; RXF 393 renal; SK-MEL-28 melanoma; SK-MEL-5 melanoma; SNB-75 CNS; UACC-62 melanoma; UO-31 renal.
Holding throughout (assay): NCI-60 cell line screen, 48 h

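All cell lines were grown in 96-well plates and treated with compound for 48 hours. At the TGI there is no net growth.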

For the molecule `CC(C)C(OC(=O)c1ccc(NCC2=CC(=O)C=CC2=O)cc1)C(C)C`, the TGI in the experiment with A498 renal was determined as 31.9 µM; with HOP-92 NSCLC, 4.67 µM; with K-562 leukemia it was 12.6 µM; in the experiment on KM12 colon, 30.5 µM; in the experiment on MCF7 breast, 22.5 µM; with MDA-MB-231 breast it was 31.8 µM. The TGI was 7.12 µM in the experiment on MOLT-4 leukemia; greater than 28.2 µM in the experiment on RPMI-8226 leukemia; 3.67 µM in the experiment with RXF 393 renal; 15 µM in the experiment with SK-MEL-28 melanoma; 24.5 µM in the experiment on SK-MEL-5 melanoma; 17.2 µM in the experiment on SNB-75 CNS. The values for the TGI in the experiment on UACC-62 melanoma and with UO-31 renal were 20.3 µM and 4.74 µM, respectively.

Regarding `COC(=O)/C=C1/OC(c2ccccc2)=C(C)C1=O`, the TGI is 32.8 µM in the experiment with A498 renal; 26.2 µM with HOP-92 NSCLC; 15 µM in the experiment with K-562 leukemia; 27.1 µM with KM12 colon; 16.6 µM in the experiment on MCF7 breast; 15.7 µM in the experiment with MDA-MB-231 breast. In addition, the TGI with MOLT-4 leukemia is greater than 100 µM; in the experiment on RPMI-8226 leukemia, 5.65 µM; with RXF 393 renal, 22.5 µM; with SK-MEL-28 melanoma, 31.1 µM; in the experiment on SK-MEL-5 melanoma it was 34.2 µM; in the experiment on SNB-75 CNS, 43 µM. The TGI in the experiment on UACC-62 melanoma came out at 11.5 µM; in the experiment on UO-31 renal it was 26.7 µM.

`Cc1ccc2nc(C(C)C)c(=O)[nH]c2c1`: the TGI with A498 renal, in the experiment with HOP-92 NSCLC, with K-562 leukemia, in the experiment on KM12 colon, in the experiment on MCF7 breast and with MDA-MB-231 breast was greater than 100 µM each time. Further, the TGI with MOLT-4 leukemia, in the experiment with RPMI-8226 leukemia, in the experiment on RXF 393 renal, in the experiment with SK-MEL-28 melanoma, with SK-MEL-5 melanoma and with SNB-75 CNS was greater than 100 µM in each case. In addition, the TGI with UACC-62 melanoma and in the experiment on UO-31 renal was greater than 100 µM throughout.

For `COc1ccccc1C(O)[C@@H]1C[C@@H]2[C@H]3CC[C@@](C)([C@@H]2O1)C3(C)C` (some centres not stated), the TGI in the experiment on A498 renal was found to be 29.5 µM; in the experiment on HOP-92 NSCLC it was 30.7 µM; in the experiment with K-562 leukemia, 52.3 µM; with KM12 colon, 41.6 µM; with MCF7 breast it was 41.7 µM; in the experiment with MDA-MB-231 breast, 34.4 µM. Further, the TGI in the experiment with MOLT-4 leukemia was found to be 39 µM; in the experiment with RPMI-8226 leukemia, 78.7 µM; in the experiment on RXF 393 renal, 32.6 µM; in the experiment on SK-MEL-28 melanoma it was 37.3 µM; in the experiment on SK-MEL-5 melanoma it was 31.6 µM; in the experiment with SNB-75 CNS, 37.7 µM. The TGI stood at 32.8 µM in the experiment on UACC-62 melanoma and 32.4 µM in the experiment on UO-31 renal.

Take `Fc1ccc2c3c([nH]c2c1)CCN(Cc1ccccc1)C3`: the TGI came to 31.7 µM in the experiment on A498 renal; 18.7 µM with HOP-92 NSCLC; 41 µM in the experiment with K-562 leukemia; 29 µM in the experiment on KM12 colon; 31.3 µM with MCF7 breast; 43.8 µM with MDA-MB-231 breast. In addition, the TGI in the experiment with MOLT-4 leukemia was 42.5 µM; with RPMI-8226 leukemia, 77.2 µM; with RXF 393 renal, 31 µM; with SK-MEL-28 melanoma, 30.3 µM; with SK-MEL-5 melanoma it was 38.8 µM; in the experiment on SNB-75 CNS, 32.9 µM. For the same molecule, the results for the TGI in the experiment with UACC-62 melanoma and in the experiment with UO-31 renal were 35.2 µM and 25.6 µM, respectively.

Consider `COc1cccc(C2c3cc4c(cc3OC(NNS(=O)(=O)c3ccc(C)cc3)C2C)OCO4)c1OC` (configuration not stated), for which the TGI with A498 renal stood at 6.42 µM; in the experiment on HOP-92 NSCLC, 7.18 µM; in the experiment on K-562 leukemia it was 6.79 µM; with KM12 colon, 13.5 µM; in the experiment on MCF7 breast it was 79.5 µM; in the experiment on MDA-MB-231 breast, 27.6 µM. Also, the TGI was 9.02 µM in the experiment on MOLT-4 leukemia; 6.86 µM in the experiment on RPMI-8226 leukemia; 21.6 µM with RXF 393 renal; greater than 100 µM in the experiment with SK-MEL-28 melanoma; 19 µM in the experiment with SK-MEL-5 melanoma; 60.5 µM in the experiment with SNB-75 CNS. In addition, the TGI in the experiment on UACC-62 melanoma worked out at 33.2 µM; in the experiment with UO-31 renal, 52.8 µM.

Take `O=C(/C=C/c1ccccc1)Nc1ccccc1SCCCCl`: the TGI in the experiment on A498 renal is greater than 29.5 µM; in the experiment with HOP-92 NSCLC, greater than 30.9 µM; in the experiment with K-562 leukemia it was greater than 100 µM; in the experiment on KM12 colon it was greater than 64.6 µM; in the experiment with MCF7 breast, greater than 100 µM; in the experiment on MDA-MB-231 breast, 74.5 µM. Moreover, the TGI in the experiment on MOLT-4 leukemia is greater than 100 µM; with RPMI-8226 leukemia, greater than 100 µM; with RXF 393 renal, 84.2 µM; with SK-MEL-28 melanoma, greater than 100 µM; in the experiment on SK-MEL-5 melanoma it was greater than 91.4 µM; in the experiment with SNB-75 CNS, greater than 87.1 µM. In addition, the TGI with UACC-62 melanoma is greater than 72.7 µM; with UO-31 renal it was 91.6 µM.

As for `CC(=O)c1ccc2c(c1)CC1(C2)Cc2cc3c(c(C(=O)O)c2C1)CCC3` (configuration not stated), the TGI in the experiment on A498 renal, in the experiment on HOP-92 NSCLC, in the experiment with K-562 leukemia, in the experiment with KM12 colon, in the experiment on MCF7 breast and in the experiment with MDA-MB-231 breast was greater than 100 µM in each case. In addition, the TGI with MOLT-4 leukemia, in the experiment with RPMI-8226 leukemia, with RXF 393 renal, with SK-MEL-28 melanoma, in the experiment on SK-MEL-5 melanoma and in the experiment on SNB-75 CNS was greater than 100 µM throughout. In addition, the TGI in the experiment with UACC-62 melanoma and in the experiment on UO-31 renal was greater than 100 µM each time.
